Legend:
Assay type in all cases: in vivo
Tetranychus urticae = Tetranychus urticae (two-spotted spider mite) leaf disc spray test; details: foliar, 192 h, 200 ppm sprayed on bean leaf discs, mite populations of mixed ages, egg, larval and adult mortality 8 days later
Description: Tetranychus Urticae (Two-Spotted Spider Mite): Bean leaf discs on agar in 24-well microtiter plates were sprayed with test solutions at an application rate of 200 ppm. After drying, the leaf discs are infested with mite populations of mixed ages. 8 days later, discs are checked for egg mortality, larval mortality, and adult mortality.

Plutella xylostella = Plutella xylostella (diamond back moth) artificial diet test; details: 144 h, 200 ppm (concentration in well 18 ppm), L2 larvae, larval mortality and growth regulation after 6 days
Method: Plutella Xylostella (Diamond Back Moth): 24-well microtiter plate (MTP) with artificial diet was treated with test solutions at an application rate of 200 ppm (concentration in well 18 ppm) by pipetting. After drying, the MTP's were infested with L2 larvae (7-12 per well). After an incubation period of 6 days, samples were checked for larval mortality and growth regulation.

Heliothis virescens = Heliothis virescens (tobacco budworm) egg/artificial diet test; details: 96 h, 200 ppm (concentration in well 18 ppm), eggs 0-24 h old on artificial diet, egg mortality, larval mortality, growth regulation after 4 days
Method: Heliothis Virescens (Tobacco Budworm): Eggs (0-24 h old) were placed in 24-well microtiter plate on artificial diet and treated with test solutions at an application rate of 200 ppm (concentration in well 18 ppm) by pipetting. After an incubation period of 4 days, samples were checked for egg mortality, larval mortality, and growth regulation.

Spodoptera littoralis = Spodoptera littoralis (Egyptian cotton leafworm) leaf disc spray test; details: foliar, 72 h, 200 ppm sprayed on cotton leaf discs, 5 L1 larvae, mortality, feeding behavior, growth regulation 3 days after treatment
Description: Spodoptera Littoralis (Egyptian Cotton Leafworm): Cotton leaf discs were placed on agar in a 24-well microtiter plate and sprayed with test solutions at an application rate of 200 ppm. After drying, the leaf discs were infested with 5 L1 larvae. The samples were checked for mortality, feeding behavior, and growth regulation 3 days after treatment (DAT).

Diabrotica balteata = Diabrotica balteata (corn root worm) artificial diet test; details: 120 h, 200 ppm (concentration in well 18 ppm), L2 larvae, larval mortality and growth regulation after 5 days
Method: Diabrotica Balteata (Corn Root Worm): A 24-well microtiter plate (MTP) with artificial diet was treated with test solutions at an application rate of 200 ppm (concentration in well 18 ppm) by pipetting. After drying, the MTP's were infested with L2 larvae (6-10 per well). After an incubation period of 5 days, samples were checked for larval mortality and growth regulation.

Thrips tabaci = Thrips tabaci (onion thrips) leaf disc spray test; details: foliar, 168 h, 200 ppm sprayed on sunflower leaf discs, population of mixed ages, mortality after 7 days
Method: Thrips Tabaci (Onion Thrips): Sunflower leaf discs were placed on agar in a 24-well microtiter plate and sprayed with test solutions at an application rate of 200 ppm. After drying, the leaf discs were infested with an […] population of mixed ages. After an incubation period of 7 days, samples were checked for mortality.

Measured: pest or weed control at 200 ppm

Cc1cc(C(F)(C(F)(F)F)C(F)(F)F)cc(C)c1NC(=O)c1ccc(-n2cncn2)c([N+](=O)[O-])c1 [A1, N-[2,6-Dimethyl-4-(1,2,2,2-tetrafluoro-1-trifluoromethylethyl)phenyl]-3-nitro-4-(1,2,4-triazol-1-yl)benzamide]
not listed: Thrips tabaci
≥ 80%: all other assays above

CCc1cc(C(F)(C(F)(F)F)C(F)(F)F)cc(CC)c1NC(=O)c1ccc(-n2cncn2)c([N+](=O)[O-])c1 [A2, N-[2,6-Diethyl-4-(1,2,2,2-tetrafluoro-1-trifluoromethylethyl)phenyl]-3-nitro-4-(1,2,4-triazol-1-yl)benzamide]
≥ 80%: Spodoptera littoralis | Diabrotica balteata

CCc1cc(C(F)(C(F)(F)F)C(F)(F)C(F)(F)F)cc(C)c1NC(=O)c1ccc(-n2cncn2)c([N+](=O)[O-])c1 (stereo not shown) [A3, N-[2-Ethyl-4-(1,2,2,3,3,3-hexafluoro-1-trifluoromethylpropyl)-6-methylphenyl]-3-nitro-4-(1,2,4-triazol-1-yl)benzamide]
≥ 80%: all assays above

O=C(Nc1c(Br)cc(C(F)(C(F)(F)F)C(F)(F)C(F)(F)F)cc1Br)c1ccc(-n2cncn2)c([N+](=O)[O-])c1 (stereo not shown) [A4, N-[2,6-dibromo-4-(1,2,2,3,3,3-hexafluoro-1-trifluoromethylpropyl)phenyl]-3-nitro-4-(1,2,4-triazol-1-yl)benzamide]
≥ 80%: all assays above

Cc1cc(C(F)(C(F)(F)F)C(F)(F)F)cc(C)c1NC(=O)c1ccc(-n2cncn2)c(N)c1 [B1, 3-Amino-N-[2,6-dimethyl-4-(1,2,2,2-tetrafluoro-1-trifluoromethylethyl)phenyl]-4-(1,2,4-triazol-1-yl)benzamide]
≥ 80%: Tetranychus urticae | Heliothis virescens

CCc1cc(C(F)(C(F)(F)F)C(F)(F)F)cc(CC)c1NC(=O)c1ccc(-n2cncn2)c(N)c1 [B2, 3-amino-N-[2,6-diethyl-4-(1,2,2,2-tetrafluoro-1-trifluoromethylethyl)phenyl]-4-(1,2,4-triazol-1-yl)benzamide]
not listed: Thrips tabaci
≥ 80%: all other assays above

CCc1cc(C(F)(C(F)(F)F)C(F)(F)C(F)(F)F)cc(C)c1NC(=O)c1ccc(-n2cncn2)c(N)c1 (stereo not shown) [B3, 3-Amino-N-[2-ethyl-4-(1,2,2,3,3,3-hexafluoro-1-trifluoromethylpropyl)-6-methyl-phenyl]-4-(1,2,4-triazol-1-yl)benzamide]
not listed: Thrips tabaci
≥ 80%: all other assays above

Nc1cc(C(=O)Nc2c(Br)cc(C(F)(C(F)(F)F)C(F)(F)C(F)(F)F)cc2Br)ccc1-n1cncn1 (stereo not shown) [B4, 3-amino-N-[2,6-dibromo-4-(1,2,2,3,3,3-hexafluoro-1-trifluoromethylpropyl)-phenyl]-4-(1,2,4-triazol-1-yl)benzamide]
≥ 80%: Tetranychus urticae | Plutella xylostella | Heliothis virescens | Spodoptera littoralis

Cc1cc(C(F)(C(F)(F)F)C(F)(F)F)cc(C)c1NC(=O)c1ccc(-n2cncn2)c(NC(=O)c2ccc(F)cc2)c1 [D1, 3-(4-Fluorobenzoylamino)-N-[2,6-dimethyl-4-(1,2,2,2-tetrafluoro-1-trifluoromethyl-ethyl)phenyl]-4-(1,2,4-triazol-1-yl)benzamide]
≥ 80%: Plutella xylostella | Heliothis virescens | Spodoptera littoralis | Diabrotica balteata

CCc1cc(C(F)(C(F)(F)F)C(F)(F)F)cc(CC)c1NC(=O)c1ccc(-n2cncn2)c(NC(=O)c2ccc(F)cc2)c1 [D2, 3-(4-fluorobenzoylamino)-N-[2,6-diethyl-4-(1,2,2,2-tetrafluoro-1-trifluoromethylethyl)phenyl]-4-(1,2,4-triazol-1-yl)benzamide]
not listed: Tetranychus urticae
≥ 80%: all other assays above

CCc1cc(C(F)(C(F)(F)F)C(F)(F)C(F)(F)F)cc(C)c1NC(=O)c1ccc(-n2cncn2)c(NC(=O)c2cccc([N+](=O)[O-])c2C)c1 (stereo not shown) [D3, 3-(2-Methyl-3-nitrobenzoylamino)-N-[2-ethyl-4-(1,2,2,3,3,3-hexafluoro-1-trifluoromethylpropyl)-6-methylphenyl]-4-(1,2,4-triazol-1-yl)benzamide]
≥ 80%: Tetranychus urticae | Plutella xylostella | Heliothis virescens | Spodoptera littoralis

CCc1cc(C(F)(C(F)(F)F)C(F)(F)C(F)(F)F)cc(C)c1NC(=O)c1ccc(-n2cncn2)c(NC(=O)c2ccc(F)cc2Cl)c1 (stereo not shown) [D4, 3-(2-Chloro-4-fluorobenzoylamino)-N-[2-ethyl-4-(1,2,2,3,3,3-hexafluoro-1-trifluoromethylpropyl)-6-methylphenyl]-4-(1,2,4-triazol-1-yl)benzamide]
≥ 80%: all assays above

CCc1cc(C(F)(C(F)(F)F)C(F)(F)C(F)(F)F)cc(C)c1NC(=O)c1ccc(-n2cncn2)c(NC(=O)c2ccc(C#N)cc2)c1 (stereo not shown) [D5, 3-(4-Cyanobenzoylamino)-N-[2-ethyl-4-(1,2,2,3,3,3-hexafluoro-1-trifluoromethyl-propyl)-6-methylphenyl]-4-(1,2,4-triazol-1-yl)benzamide]
≥ 80%: Plutella xylostella | Heliothis virescens | Spodoptera littoralis

O=C(Nc1cc(C(=O)Nc2c(Br)cc(C(F)(C(F)(F)F)C(F)(F)C(F)(F)F)cc2Br)ccc1-n1cncn1)c1ccc(F)cc1 (stereo not shown) [D7, 3-(4-Fluorobenzoylamino)-N-[2,6-dibromo-4-(1,2,2,3,3,3-hexafluoro-1-trifluoromethylpropyl)phenyl]-4-(1,2,4-triazol-1-yl)benzamide]
not listed: Tetranychus urticae
≥ 80%: all other assays above

N#Cc1ccc(C(=O)Nc2cc(C(=O)Nc3c(Br)cc(C(F)(C(F)(F)F)C(F)(F)C(F)(F)F)cc3Br)ccc2-n2cncn2)cc1 (stereo not shown) [D8, 3-(4-cyanobenzoylamino)-N-[2,6-dibromo-4-(1,2,2,3,3,3-hexafluoro-1-trifluoromethylpropyl)phenyl]-4-(1,2,4-triazol-1-yl)benzamide]
not listed: Tetranychus urticae
≥ 80%: all other assays above
